Assay results reported in patent publication US10456389B2, “Extended release nicotinamide formulation” (Ferring B.V., priority 2013, dated 2019).
Values after ≈ are worked out from the molar mass of the structure shown.

Columns and labels:
[1] = Release testing, USP paddle apparatus, purified water, UV at 260 nm; format: physicochemical; details: raw material, 0.2 g in 100 ml water; FIG. 1
Description: Dissolution experiments were performed in a Sotax AT7 Dissolution apparatus, USP paddle.
All assays were performed in a Shimadzu UV-1700 spectrophotometer.
Release testing was performed in a USP paddle apparatus using 500 ml purified water as release medium and operated at 100 rpm. The results were quantified by a Shimadzu spectrophotometer at 260 nm after dilution 1:50.
To assess whether the ethylcellulose film coating was able to delay the release of nicotinamide, the release from the coated 95% granules (RD1302-2-C1) was tested and compared to the release from the raw material. Nicotinamide from the raw material (0.2 g in 100 ml water) was dissolved very quickly and within 5 minutes. […] Release of the remaining nicotinamide started later than 30 minutes, and after 3 hours 85% had been released. This means that release of nicotinamide can be released over 3 hours by applying an ethylcellulose film.

[2] = cited from earlier work

For `NC(=O)c1cccnc1` [Nicotinamide], the Time until dissolved [1] is listed as no more than 5 min, the “Solubility in 96% ethanol” value ([2]; 96% ethanol) is listed as 660 mg/mL (≈ 5400 mM) and the Solubility in water ([2]; water, 20° C.) is listed as 690 mg/mL (≈ 5650 mM).
